Data as given in patent US11339171B2, “MDM2 inhibitors” (Gan & Lee Pharmaceuticals, priority 2017, dated 2022).
pIC50: −log10 of the molar value. Read-outs that look alike come from different tables or passages of the source.

What was measured:
[1] = system: human osteosarcoma cell line SJSA-1; assay: Inhibition of proliferation of human osteosarcoma cell line SJSA-1 (DAPI staining, In Cell Analyzer)
Method: 2.2 Experiment Preparation:
2.2.1 Preparation of a culture medium for human osteosarcoma cell line SJSA-1: RPMI1640+10% FBS+1% penicillin/streptomycin
2.2.2 Preparation of a test compound solution:
a. the test compound solution with a certain concentration was taken, and diluted with the culture medium to obtain a compound solution with a final concentration of 20 μM;
b. 200 μL of a culture medium containing 0.2% DMSO (dimethyl sulfoxide) was added into H2-H10 of a 96-well plate; 300 μl of the above solution was added into H1; and
c. 100 μL was taken out from well H1, added into H2, and mixed well; then 100 μl of the resultant solution was taken and added into H3, and dilution was carried out in sequence until H9 to obtain the 3-fold serial dilution of the test compound.
2.3 Experimental Process:
2.3.1 SJSA-1 cells were inoculated into a 96-well cell plate with black transparent bottom at 4000 cells/100 μl/well, and cultured overnight at 37° C.;
2.3.3 Fixation: the cell plate was taken out, the culture medium was removed, and 50 μL of 4% paraformaldehyde solution was added to each well to fix for 10 min;
2.3.4 50 μl of 0.1 M glycine was added to neutralize for 10 min;
2.3.5 Washing was performed with 1×PBS (phosphate buffer solution pH7.2) twice;
2.3.6 Permeabilization: 50 μL of 0.2% TritonX-100 (Triton) was added per well, and permeabilization was carried out at room temperature for 10 min;
2.3.7 Washing was performed with 1×PBS (phosphate buffer solution pH7.2) twice;
2.3.9 Washing was performed with 1×PBS (phosphate buffer solution pH7.2) for three times; and
2.3.10 Scanning and analysis were performed by In cell analyzer.
The inhibition rate of each compound at each concentration point was calculated according to the following formula, and curve fitting was performed by GraphPad Prism 6.0 software to obtain the IC50 value.

MDM2 = molecular target: T1, MDM2 (Homo sapiens, UniProt Q00987); assay: Inhibition test of MDM2-P53 (GST-MDM2, Biotin-P53, Anti-GST-Tb, SA-XL665); format: binding
T1 construct: made in house
T1 sequence (Q00987 whole entry): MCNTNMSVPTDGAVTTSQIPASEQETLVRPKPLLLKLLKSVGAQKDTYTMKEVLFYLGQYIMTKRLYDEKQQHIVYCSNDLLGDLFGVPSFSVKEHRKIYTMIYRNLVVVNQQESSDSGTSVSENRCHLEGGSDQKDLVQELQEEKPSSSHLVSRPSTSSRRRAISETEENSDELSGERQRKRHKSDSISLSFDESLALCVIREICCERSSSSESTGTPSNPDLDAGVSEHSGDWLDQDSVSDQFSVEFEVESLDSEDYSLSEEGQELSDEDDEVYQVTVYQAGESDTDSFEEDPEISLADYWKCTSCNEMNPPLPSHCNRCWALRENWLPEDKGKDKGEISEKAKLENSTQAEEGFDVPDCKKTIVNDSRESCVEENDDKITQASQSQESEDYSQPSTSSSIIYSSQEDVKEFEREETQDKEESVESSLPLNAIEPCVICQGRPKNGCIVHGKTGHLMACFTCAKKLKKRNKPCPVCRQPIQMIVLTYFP
Outline: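 HTRF-type assay using 4 nM GST-MDM2 (final), Biotin-P53, SA-XL665 and anti-GST-Tb in PBS with 0.1% BSA, 5 mM DTT and 1 mM AEBSF. Compounds in 5-fold serial dilutions over twelve points; incubation 90 min at 25° C with shaking before plate-reader read-out.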

[2] = Homo sapiens, SJSA-1, 72 h, read-out: IC50 (nM), inhibitory activity on proliferation of human osteosarcoma cell line SJSA-1, SJSA-1, incubated 72 h

Row | SMILES | IC50 [1, 2] [nM] | pIC50 (MDM2) | IC50 ([1]; read-out: IC50 (nM), inhibitory activity on proliferation of human osteosarcoma cell line SJSA-1, SJSA-1, incubated 72 h) [nM]
1 | CCc1ccc(Cl)cc1N1C(=O)c2nc(-c3cnc(OC)nc3OC)n(C(C)C)c2[C@]12C(=O)Nc1cc(Cl)ccc12 [Example R-15, (R)-6-chloro-5′-(5-chloro-2-ethylphenyl)-2′-(2,4-dimethoxypyrimidin-5-yl)-3′-isopropyl-3′H-spiro[dihydroindole-3,4′-pyrrolo[3,4-d]imidazole]-2,6′(5′H)-dione] | 840 | 6.97 | –
2 | COc1ncc(-c2nc3c(n2C(C)C)[C@]2(C(=O)Nc4cc(Cl)ccc42)N(c2cc(Cl)cn(C)c2=O)C3=O)c(OC)n1 [Example R-16, (R)-6-chloro-5′-(5-chloro-1-methyl-2-oxo-1,2-dihydropyridin-3-yl)-2′-(2,4-dimethoxypyrimidin-5-yl)-3′-isopropyl-3′H-spiro[dihydroindole-3,4′-pyrrolo[3,4-d]imidazole]-2,6′(5′H)-dione] | 20100 | 6.24 | –
3 | COc1ncc(-c2nc3c(n2C(C)C)[C@]2(C(=O)Nc4cc(Cl)ccc42)N(c2cc(Cl)ccc2OC)C3=O)c(OC)n1 [Example R-17, (R)-6-chloro-5′-(5-chloro-2-methoxyphenyl)-2′-(2,4-dimethoxypyrimidin-5-yl)-3′-isopropyl-3′H-spiro[dihydroindole-3,4′-pyrrolo[3,4-d]imidazole]-2,6′(5′H)-dione] | 1310 | 7.31 | 2440
4 | COc1ccncc1-c1nc2c(n1C(C)C)[C@]1(C(=O)Nc3cc(Cl)ccc31)N(c1cc(Cl)ccc1C)C2=O [Example R-18, (R)-6-chloro-5′-(5-chloro-2-methylphenyl)-3′-isopropyl-2′-(4-methoxypyridin-3-yl)-3′H-spiro[dihydroindole-3,4′-pyrrolo[3,4-d]imidazole]-2,6′(5′H)-dione] | 1620 | 6.80 | –
5 | COc1ncc(-c2nc3c(n2C(C)C)[C@]2(C(=O)Nc4cc(Cl)ccc42)N(c2ccc(C)c(Cl)c2)C3=O)c(OC)n1 [Example R-20, (R)-6-chloro-5′-(3-chloro-4-methylphenyl)-2′-(2,4-dimethoxypyrimidin-5-yl)-3′-isopropyl-3′H-spiro[dihydroindole-3,4′-pyrrolo[3,4-d]imidazole]-2,6′(5′H)-dione] | 4010 | 6.59 | –
6 | CNC(=O)c1ccc(OC)c(-c2nc3c(n2C(C)C)[C@]2(C(=O)Nc4cc(Cl)ccc42)N(c2cc(Cl)ccc2C)C3=O)c1 [Example R-21, (R)-3-(6-chloro-5′-(5-chloro-2-methylphenyl)-3′-isopropyl-2,6′-dioxo-5′,6′-dihydro-3′H-spiro[dihydroindole-3,4′-pyrrolo[3,4-d]imidazole]-2′-yl)-4-methoxy-N-methylbenzamide] | 5230 | 6.65 | –
7 | COc1ccc(C(=O)N(C)C)cc1-c1nc2c(n1C(C)C)[C@]1(C(=O)Nc3cc(Cl)ccc31)N(c1cc(Cl)ccc1C)C2=O [Example R-22, (R)-3-(6-chloro-5′-(5-chloro-2-methylphenyl)-3′-isopropyl-2,6′-dioxo-5′,6′-dihydro-3′H-spiro[dihydroindole-3,4′-pyrrolo[3,4-d]imidazole]-2′-yl)-4-methoxy-N,N-dimethylbenzamide] | 6950 | 6.20 | –
8 | COc1cc(N(C)C)ccc1-c1nc2c(n1C(C)C)[C@]1(C(=O)Nc3cc(Cl)ccc31)N(c1cc(Cl)ccc1C)C2=O [Example R-23, (R)-6-chloro-5′-(5-chloro-2-methylphenyl)-2′-(4-(dimethylamino)-2-methoxyphenyl)-3′-isopropyl-3′H-spiro[dihydroindole-3,4′-pyrrolo[3,4-d]imidazole]-2,6′(5′H)-dione] | 354 | 6.76 | –
9 | COc1cc(C)ccc1-c1nc2c(n1C(C)C)[C@]1(C(=O)Nc3cc(Cl)ccc31)N(c1cc(Cl)ccc1C)C2=O [Example R-24, (R)-6-chloro-5′-(5-chloro-2-methylphenyl)-3′-isopropyl-2′-(2-methoxy-4-methylphenyl)-3′H-spiro[dihydroindole-3,4′-pyrrolo[3,4-d]imidazole]-2,6′(5′H)-dione] | 872 | 6.41 | –
10 | CNc1ccc(-c2nc3c(n2C(C)C)[C@]2(C(=O)Nc4cc(Cl)ccc42)N(c2cc(Cl)ccc2C)C3=O)c(OC)c1 [Example R-25, (R)-6-chloro-5′-(5-chloro-2-methylphenyl)-3′-isopropyl-2′-(2-methoxy-4-(methylamine)phenyl)-3′H-spiro[dihydroindole-3,4′-pyrrolo[3,4-d]imidazole]-2,6′(5′H)-dione] | 265 | 7.29 | –
11 | CCn1c(-c2cnc(OC)nc2OC)nc2c1[C@]1(C(=O)Nc3cc(Cl)ccc31)N(c1cc(Cl)ccc1C)C2=O [Example R-26, (R)-6-chloro-5′-(5-chloro-2-methylphenyl)-2′-(2,4-dimethoxypyrimidin-5-yl)-3′-ethyl-3′H-spiro[dihydroindole-3,4′-pyrrolo[3,4-d]imidazole]-2,6′(5′H)-dione] | 3650 | 6.63 | –
12 | COc1ccc(C(N)=O)cc1-c1nc2c(n1C(C)C)[C@]1(C(=O)Nc3cc(Cl)ccc31)N(c1cc(Cl)ccc1C)C2=O [Example R-29, (R)-3-(6-chloro-5′-(5-chloro-2-methylphenyl)-3′-isopropyl-2,6′-dioxo-5′,6′-dihydro-3′H-spiro[dihydroindole-3,4′-pyrrolo[3,4-d]imidazole]-2′-yl)-4-methoxybenzamide] | 10900 | 7.03 | –
13 | Cc1ccc(Cl)cc1N1C(=O)c2nc(-c3ccccc3OC(F)(F)F)n(C(C)C)c2[C@]12C(=O)Nc1cc(Cl)ccc12 [Example R-31, (R)-6-chloro-5′-(5-chloro-2-methylphenyl)-3′-isopropyl-2′-(2-(trifluoromethoxy)phenyl)-3′H-spiro[dihydroindole-3,4′-pyrrolo[3,4-d]imidazole]-2,6′(5′H)-dione] | 3580 | 5.85 | –
14 | COc1cc(C(C)C)ccc1-c1nc2c(n1C(C)C)[C@]1(C(=O)Nc3cc(Cl)ccc31)N(c1cc(Cl)ccc1C)C2=O [Example R-32, (R)-6-chloro-5′-(5-chloro-2-methylphenyl)-3′-isopropyl-2′-(4-isopropyl-2-methoxyphenyl)-3′H-spiro[dihydroindole-3,4′-pyrrolo[3,4-d]imidazole]-2,6′(5′H)-dione] | 8200 | 5.96 | –
15 | CCc1ccc(-c2nc3c(n2C(C)C)[C@]2(C(=O)Nc4cc(Cl)ccc42)N(c2cc(Cl)ccc2C)C3=O)c(OC)c1 [Example R-33, (R)-6-chloro-5′-(5-chloro-2-methylphenyl)-2′-(4-ethyl-2-methoxyphenyl)-3′-isopropyl-3′H-spiro[dihydroindole-3,4′-pyrrolo[3,4-d]imidazole]-2,6′(5′H)-dione] | 4890 | 6.23 | –
16 | COc1cc(-c2nc3c(n2C(C)C)[C@]2(C(=O)Nc4cc(Cl)ccc42)N(c2cc(Cl)ccc2C)C3=O)c(OC)cn1 [Example R-40, (R)-6-chloro-5′-(5-chloro-2-methylphenyl)-2′-(2,5-dimethoxypyridin-4-yl)-3′-isopropyl-3′H-spiro[dihydroindole-3,4′-pyrrolo[3,4-d]imidazole]-2,6′(5′H)-dione] | 3090 | 6.49 | –
17 | COc1ncc(-c2nc3c(n2C(C)C)[C@]2(C(=O)Nc4cc(Cl)ccc42)N(c2cc(Cl)cnc2C)C3=O)c(OC)n1 [Example R-42, (R)-6-chloro-5′-(5-chloro-2-methylpyridin-3-yl)-2′-(2,4-dimethoxypyrimidin-5-yl)-3′-isopropyl-3′H-spiro[dihydroindole-3,4′-pyrrolo[3,4-d]imidazole]-2,6′(5′H)-dione] | 4560 | 6.44 | –
18 | COc1ncc(-c2nc3c(n2C(C)C)[C@]2(C(=O)Nc4cc(Cl)ccc42)N(c2cc(Cl)ccc2F)C3=O)c(OC)n1 [Example R-44, (R)-6-chloro-5′-(5-chloro-2-fluorophenyl)-2′-(2,4-dimethoxypyrimidin-5-yl)-3′-isopropyl-3′H-spiro[dihydroindole-3,4′-pyrrolo[3,4-d]imidazole]-2,6′(5′H)-dione] | 1330 | 7.29 | –
19 | COc1ncc(-c2nc3c(n2C(C)C)[C@]2(C(=O)Nc4cc(Cl)ccc42)N(c2cc(F)cc(Cl)c2)C3=O)c(OC)n1 [Example R-45, (R)-6-chloro-5′-(3-chloro-5-fluorophenyl)-2′-(2,4-dimethoxypyrimidin-5-yl)-3′-isopropyl-3′H-spiro[dihydroindole-3,4′-pyrrolo[3,4-d]imidazole]-2,6′(5′H)-dione] | 4310 | 6.77 | –
20 | COc1cc(CN(C)C)ccc1-c1nc2c(n1C(C)C)[C@]1(C(=O)Nc3cc(Cl)ccc31)N(c1cc(Cl)ccc1C)C2=O [Example R-47, (R)-6-chloro-5′-(5-chloro-2-methylphenyl)-2′-(4-((dimethylamino)methyl)-2-methoxyphenyl)-3′-isopropyl-3′H-spiro[dihydroindole-3,4′-pyrrolo[3,4-d]imidazole]-2,6′(5′H)-dione] | 3850 | 6.68 | –
21 | COc1ncc(-c2nc3c(n2C(C)C)[C@]2(C(=O)Nc4cc(Cl)ccc42)N(c2ccc(OC)c(Cl)c2)C3=O)c(OC)n1 [Example R-48, (R)-6-chloro-5′-(3-chloro-4-methoxyphenyl)-2′-(2,4-dimethoxypyrimidin-5-yl)-3′-isopropyl-3′H-spiro[dihydroindole-3,4′-pyrrolo[3,4-d]imidazole]-2,6′(5′H)-dione] | 3630 | 6.71 | –
22 | COc1cc(N)ccc1-c1nc2c(n1C(C)C)[C@]1(C(=O)Nc3cc(Cl)ccc31)N(c1cc(Cl)ccc1C)C2=O [Example R-49, (R)-2′-(4-amino-2-methoxyphenyl)-6-chloro-5′-(5-chloro-2-methylphenyl)-3′-isopropyl-3′H-spiro[dihydroindole-3,4′-pyrrolo[3,4-d]imidazole]-2,6′(5′H)-dione] | 1490 | 7.15 | –
